Where a chain is given by its changes, count along the chain named.
Key:
[1] = system: Salmonella typhimurium tester strains (TA97a, TA98, TA100, and TA1535) and Escherichia coli strain (WP2 uvrA pKM101); experiment: Ames screening; settings: with and without S9, 7.8-250 ng/well
Method: The Ames screening detects both frameshift and base-pair substitution mutations using 4 Salmonella typhimurium tester strains (TA97a, TA98, TA100, and TA1535) and 1 Escherichia coli strain (WP2 uvrA pKM101). Strains TA97a and TA98 detect frameshift mutations, and TA100, TA1535, and WP2 uvrA pKM101 detect base-pair substitution mutations. This scaled-down Ames test uses minimal compound, is conducted with and without metabolic activation (S9 fraction), and uses multiwell plates. The Ames screen for TEACOP 270 was tested in duplicate with strains TA97a, TA98, TA100, TA1535, and WP2 uvrA pKM101 in the presence and absence of a metabolic activation system (Aroclor™ 1254 induced rat liver S9 microsomal fraction) at 7.8, 15.5, 31, 62.5, 125, and 250 ng/well. Positive control compounds were used at 4 different concentrations to ensure the assay system was sensitive to known mutagenic compounds. DMSO was used as the vehicle control.

[2] = biological target: T1, mouse AHR (mAHR B1-allele) (Mus musculus, UniProt P30561, M589L/N533S/P471L); experiment: cell-based
T1 sequence (P30561 10-805 P471L/N533S/M589L): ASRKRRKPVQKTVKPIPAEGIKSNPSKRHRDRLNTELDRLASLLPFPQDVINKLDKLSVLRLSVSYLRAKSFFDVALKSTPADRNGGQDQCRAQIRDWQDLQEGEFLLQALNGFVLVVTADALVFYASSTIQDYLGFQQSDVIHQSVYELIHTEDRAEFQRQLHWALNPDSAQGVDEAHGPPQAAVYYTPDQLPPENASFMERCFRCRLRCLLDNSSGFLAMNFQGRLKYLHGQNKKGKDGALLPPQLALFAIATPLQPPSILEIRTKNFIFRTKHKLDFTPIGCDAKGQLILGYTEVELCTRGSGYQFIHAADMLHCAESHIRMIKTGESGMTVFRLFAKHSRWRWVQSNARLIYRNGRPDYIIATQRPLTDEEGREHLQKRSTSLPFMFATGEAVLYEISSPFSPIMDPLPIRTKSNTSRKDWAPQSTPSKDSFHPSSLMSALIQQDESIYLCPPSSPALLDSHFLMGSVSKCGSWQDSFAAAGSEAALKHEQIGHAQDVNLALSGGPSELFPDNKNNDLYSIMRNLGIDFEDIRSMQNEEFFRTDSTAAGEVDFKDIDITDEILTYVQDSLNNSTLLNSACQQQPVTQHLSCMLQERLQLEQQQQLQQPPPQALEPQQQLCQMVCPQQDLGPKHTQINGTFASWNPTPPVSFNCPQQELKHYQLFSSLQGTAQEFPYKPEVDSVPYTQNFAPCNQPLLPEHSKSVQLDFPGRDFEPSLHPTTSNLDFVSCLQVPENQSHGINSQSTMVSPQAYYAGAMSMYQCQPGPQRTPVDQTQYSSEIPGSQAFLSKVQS
Method: The wild type and mutant mAHR were cloned into the XhoI/SalI cloning sites of pTARGET (Promega, Madison, Wis.) using routine PCR and molecular cloning procedures using the pSport-mAHR plasmid (PL65) as template (Dolwick, Swanson et al. 1993). For recombinant expression of mAHR, COS-1 cells were cultured in 6 cm dishes and transfected with 2 μg of wild-type or mutant mAHR expression vector. Twenty-four hours after transfection, cells were collected, and the whole cell extracts were prepared by celLytic M reagent (Sigma-Aldrich, St Louis, Mo.). 100 μg of whole cell extract was analyzed by western blot using antibodies that specifically recognize the mAHR (bear-2) and β-actin (Sigma).
COS-1 cells were cultured in 96-well plates and transiently transfected with pTarget vector containing the expression cassette of wild-type or mutant mAHR, or empty vector (3 ng), together with pGudLu6.1 DREs-driven luciferase reporter vector (14 ng) (Han, Nagy et al. 2004) and TK-renilla luciferase vector (3 ng) (Invitrogen, Carlsbad Calif.). […] The expressed luciferase activity was measured by ENSPIRE plate reader (Perkin Elmer, USA). Data analysis and simulation of dose response curves were performed using GraphPad Prism 5 (GraphPad software Inc., La Jolla, Calif.). The experiments were performed in triplicate and repeated at least three times. Representative results of one repeat are shown as mean±SEM.

[3] = Solubility in commonly used (NMR) solvents; type: physicochemical
[4] = system: mAHR H285A mutant; experiment: Luciferase reporter gene assay, mutant mAHR H285A in COS-1 cells; type: cell-based, mouse; settings: relative to WT mAHR
[5] = biological target: T2, mAHR Q377A mutant (Mus musculus, UniProt P30561, Q377A); experiment: Luciferase reporter gene assay, mutant mAHR Q377A in COS-1 cells; type: cell-based; settings: relative to WT mAHR
T2 construct: expressed in transfected cells; host or cells: COS-1
T2 sequence (P30561 10-805 Q377A limits assumed): T1 sequence (P30561 10-805 P471L/N533S/M589L) with Q368A, L462P, S524N, L580M

C1=Cc2c3ccccc3nc3nc4ccccc4c(c23)N1 [Compound 4]
mutagenicity (Ames test) [1]: No mutagenicity is detected | EC50 [2]: 378 pM | fold lower measured activity than Compound 4 ([2]; purified sample largely contaminated by lipids, FIG. 5c): more than 10 fold | solubility in CDCl3 ([3]; TFA salt): good solubility | solubility ([3]; free base form): poor solubility | solubility in commonly used solvents (CDCl3, CD3OD, DMSO-d6, etc) ([3]; isolated material): very poor solubility | effect of H285A mutation on AHR induction activity [4]: drastically affected | effect of Q377A mutation on AHR induction activity [5]: barely affected

— patent publication US10611764B2 (Wisconsin Alumni Research Foundation, priority 2017, dated 2020)
